Assay results taken from patent publication US9440982B2 (Eolas Therapeutics, Inc., priority 2012, dated 2016).

Molecular target: T1, CYP3A4 (Homo sapiens, UniProt P08684)
T1 construct: pre-incubated with human liver microsomes and NADPH; from tissue; host or cells: human liver microsomes
Test: Cytochrome P450 inhibition assay (midazolam hydroxylation)
Type: in vitro ADME
Conditions: human, human liver microsomes, probe midazolam (hydroxylation to 1′-hydroxymidazolam), 10 μM test compound, midazolam at approximately its Km
Procedure: Compounds were tested for the potential to induce drug-drug interactions by inhibition of the cytochrome P450 3A4 isoform. The assay evaluated the metabolism of a specific marker substrate (CYP3A4, midazolam hydroxylation to 1′-hydroxymidazolam) in the presence or absence of 10 μM test compound. The concentration of the marker substrate was approximately its Km (Dixit et al., Biopharm. Drug Dispos. 2007, 28(5), 257-262). A specific inhibitor for the isoform was included in each run to validate the system. An appropriate positive control inhibitor was used. Mechanism-based inhibition was investigated where warranted using a classical method. To evaluate time-dependent inhibition, parallel samples may have been included where […] was pre-incubated with human liver microsomes and NADPH for 30 min prior to the addition of the P450 substrate. The percent inhibition of the pre-incubated and non-pre-incubated samples were compared as a preliminary evaluation of time-dependent inhibition.

T1 sequence (P08684 whole entry): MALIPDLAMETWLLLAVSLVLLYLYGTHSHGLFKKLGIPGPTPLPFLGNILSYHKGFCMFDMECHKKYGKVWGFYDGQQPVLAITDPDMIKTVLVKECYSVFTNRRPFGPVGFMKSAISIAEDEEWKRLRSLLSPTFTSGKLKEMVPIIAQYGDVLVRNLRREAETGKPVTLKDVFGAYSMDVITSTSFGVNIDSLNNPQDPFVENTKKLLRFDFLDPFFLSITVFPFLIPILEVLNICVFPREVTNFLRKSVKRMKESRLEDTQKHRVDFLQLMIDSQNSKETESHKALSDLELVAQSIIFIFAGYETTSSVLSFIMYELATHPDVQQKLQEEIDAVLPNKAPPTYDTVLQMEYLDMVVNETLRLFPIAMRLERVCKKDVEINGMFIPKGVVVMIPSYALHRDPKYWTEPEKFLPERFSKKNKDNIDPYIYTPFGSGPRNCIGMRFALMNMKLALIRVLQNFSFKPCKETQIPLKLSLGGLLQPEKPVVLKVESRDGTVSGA

Row | Compound | inhibition at 10 µM [%]
1 | Cc1ccc(-n2nccn2)c(C(=O)N2CCC[C@@H](C)[C@H]2CNc2cccc(C(F)(F)F)n2)c1 [Example A89, ((2S,3R)-3-Methyl-2-(((6-(trifluoromethyl)pyridin-2-yl)amino)methyl)piperidin-1-yl)(5-methyl-2-(2H-1,2,3-triazol-2-yl)phenyl)methanone] | 92
2 | Cc1ccc(-n2nccn2)c(C(=O)N2CCC[C@@H](C)[C@H]2CNc2ncccc2C#N)c1 [Example A90, 2-((((2S,3R)-3-Methyl-1-(5-methyl-2-(2H-1,2,3-triazol-2-yl)benzoyl)piperidin-2-yl)methyl)amino)nicotinonitrile] | 33
3 | Cc1ccc(-n2nccn2)c(C(=O)N2CCC[C@@H](C)[C@H]2CNc2nnc(C(F)(F)F)s2)c1 [Example A102, ((2S,3R)-3-Methyl-2-(((5-(trifluoromethyl)-1,3,4-thiadiazol-2-yl)amino)methyl)piperidin-1-yl)(5-methyl-2-(2H-1,2,3-triazol-2-yl)phenyl)methanone] | 48
4 | Cc1ccc(-c2cccc(C)n2)c(C(=O)N2CCC[C@@H](C)[C@H]2CNc2ccc(C(F)(F)F)cn2)c1 [Example A104, ((2S,3R)-3-Methyl-2-(((5-(trifluoromethyl)pyridin-2-yl)amino)methyl)piperidin-1-yl)(5-methyl-2-(6-methylpyridin-2-yl)phenyl)methanone] | 91
5 | Cc1ccc(-n2ccc(C)n2)c(C(=O)N2CCC[C@@H](C)[C@H]2CNc2ccc(C(F)(F)F)cn2)c1 [Example A108, ((2S,3R)-3-Methyl-2-(((5-(trifluoromethyl)pyridin-2-yl)amino)methyl)piperidin-1-yl)(5-methyl-2-(3-methyl-1H-pyrazol-1-yl)phenyl)methanone] | 88

Further lines, results first:

Row | inhibition at 10 µM [%] | Compound
6 | 99 | Cc1ccc(-c2cnn(C)c2)c(C(=O)N2CCC[C@@H](C)[C@H]2CNc2cccc(C(F)(F)F)n2)c1 [Example A94, ((2S,3R)-3-Methyl-2-(((6-(trifluoromethyl)pyridin-2-yl)amino)methyl)piperidin-1-yl)(5-methyl-2-(1-methyl-1H-pyrazol-4-yl)phenyl)methanone]
7 | 92 | Cc1ccc(-c2cnn(C)c2)c(C(=O)N2CCC[C@@H](C)[C@H]2CNc2ncc(F)cc2F)c1 [Example A96, ((2S,3R)-2-(((3,5-Difluoropyridin-2-yl)amino)methyl)-3-methylpiperidin-1-yl)(5-methyl-2-(1-methyl-1H-pyrazol-4-yl)phenyl)methanone]
8 | 98 | Cc1ccc(-c2cnn(C)c2)c(C(=O)N2CCC[C@@H](C)[C@H]2CNc2ncc(Cl)cc2F)c1 [Example A97, ((2S,3R)-2-(((5-Chloro-3-fluoropyridin-2-yl)amino)methyl)-3-methylpiperidin-1-yl)(5-methyl-2-(1-methyl-1H-pyrazol-4-yl)phenyl)methanone]
9 | 83 | COc1cccnc1NC[C@@H]1[C@H](C)CCCN1C(=O)c1cc(C)ccc1-c1cnn(C)c1 [Example A101, ((2S,3R)-2-(((3-Methoxypyridin-2-yl)amino)methyl)-3-methylpiperidin-1-yl)(5-methyl-2-(1-methyl-1H-pyrazol-4-yl)phenyl)methanone]
10 | 95 | Cc1ccc(-c2cnn(C)c2)c(C(=O)N2CCC[C@@H](C)[C@H]2CNc2nnc(C(F)(F)F)s2)c1 [Example A103, ((2S,3R)-3-Methyl-2-(((5-(trifluoromethyl)-1,3,4-thiadiazol-2-yl)amino)methyl)piperidin-1-yl)(5-methyl-2-(1-methyl-1H-pyrazol-4-yl)phenyl)methanone]
11 | 96 | Cc1ccc(-c2cnn(C)c2)c(C(=O)N2CCC[C@@H](C)[C@H]2CNc2ccc(Cl)cn2)c1 [Example A105, ((2S,3R)-2-(((5-Chloropyridin-2-yl)amino)methyl)-3-methylpiperidin-1-yl)(5-methyl-2-(1-methyl-1H-pyrazol-4-yl)phenyl)methanone]
